Experimental data from article PMC9916616, “TZD-Based Hybrid Molecules Act as Dual Anti-Mycobacterium tuberculosis and Anti-Toxoplasma gondii Agents” (International Journal of Molecular Sciences, 2023).
Values after ≈ are worked out from the molar mass of the structure shown. Read-outs that look alike come from different tables or passages of the source.

Experiments:
[1] = tested on: Toxoplasma gondii RH-GFP tachyzoites; assay: In vitro anti-Tg assay (RH-GFP tachyzoite proliferation in Hs27 cells); assay type: cell-based; details: for SI (selectivity index, CC30/IC50Tg): CC30 in Hs27 / IC50Tg; for IC50: Toxoplasma gondii, HS27, 96 h, read-out: IC50Tg in Tg-Infected Hs27 Cells
T98G glioblastoma cells = assay: Cytotoxicity against human glioblastoma T98G cells (MTT); assay type: cell-based; details: 24 h, read-out: IC50 against T98G cells
Protocol: The T98G glioblastoma cells (ATTC, CRL-1690, Manassas, VA, USA) were cultured in Dulbecco’s Modified Eagle Medium (DMEM, high glucose) (Sigma Aldrich, St. Louis, MO, USA), supplemented with 10% heat-inactivated FBS, penicillin (100 U/mL), and streptomycin (100 U/mL) (Sigma Aldrich, St. Louis, MO, USA). Cells were maintained in a humidified atmosphere of 5% CO2 and 95% air at 37 °C. Stock solutions of the investigated compounds (2, 7, 8 and 10, and temozolomide) were prepared by dissolving solid substances in sterile DMSO. T98G glioblastoma cells were seeded into 96-well sterile plates at a density of 4 × 10^4 cells/mL. After 24 h of incubation, the medium was removed from each well, and then the cells were incubated for the next 24 h with different concentrations of the investigated compounds ([…]) in the medium that contained 2% FBS. Viability of the T98G cells was evaluated using MTT assay. In brief, after 24 h of incubation of the cells with varying concentrations, 15 μL of MTT solution (5 mg/mL) was added to each well. After 3 h of incubation, […] (per well) of 10% SDS buffer solution was added. After overnight incubation, the absorbance was measured at 570 nm using a microplate reader (Epoch, BioTek Instruments, Winooski, VT, USA). Experiments were repeated three times, and the measurements in each experiment were run in quadruplicate. Viability of the investigated cells was expressed as % of the viability of the untreated cells.

[2] = tested on: Danio rerio embryos and larvae; assay: Fish embryo toxicity test (FET); assay type: in vivo; details: for Toxicity to zebrafish embryos and larvae: 5 µg/mL and 10 µg/mL, within 96 h of observation; for Mortality and deformity / Concentration at which the impact on occurrence of deformations was noticeable: zebrafish, 96 h exposure; for Mortality and deformity: concentrations above 50 μg/mL
Protocol: Danio rerio (Experimental Medicine Centre, Medical University of Lublin, Poland) were maintained at 28 ± 0.5 °C, under a 14/10 h light/dark cycle with standard aquaculture conditions. After mating, the fertilized eggs were collected within 30 min. Embryos were reared in E3 embryo medium (pH 7.1–7.3; […]) in an incubator (IN 110 Memmert GmbH, Germany) at 28 ± 0.5 °C. The eggs were examined to remove the unfertilized, coagulated and damaged samples. The FET test was performed based on the OECD Guidelines for the Testing Chemicals, Test No. 236. TZD hybrids were weighted, dissolved in DMSO as stock solutions, and diluted in E3 embryo medium to the indicated treatment concentrations. The stock of TZD hybrids and dilutions in E3 embryo medium were freshly prepared before testing. Embryos were incubated at each concentration (5, 10, 15, 25, 50, 75; 100 μg/mL) of TZD hybrids. The final DMSO concentration had no detectable effects on zebrafish development. The test was conducted in 24-well plates, with 5 embryos per well and 10 per group, in triplicate. The covered plates were kept at 28 ± 0.5 °C under the light/dark conditions (12 h/12 h). Embryonic viability, and the malformation rates of each treatment group were recorded at 24, 48, 72, and 96 hpf. All experiments were conducted in accordance with the National Institute of Health Guidelines for the Care and Use of Laboratory Animals and the European Community Council Directive for the Care and Use of Laboratory Animals (2010/63/EU). For the experiments on larvae up to 5 dpf, the agreement of the Local Ethical Commission is not required.

human red blood cells = assay: Hemolytic activity determination; assay type: cell-based
Protocol: Human red blood cell (RBC) concentrate was obtained from the Regional Blood Donation and Transfusion Centre (Lublin, Poland). The RBC concentrate (5 mL) was washed three times with sterile PBS and centrifuged at 500× g for 3 min. The obtained pellet was resuspended using sterile PBS in order to obtain a 2% suspension of RBCs, which was subsequently mixed with 1 mL of different concentrations (i.e., […]) of 2, 7, 8, and 10. The mixtures were incubated at 37 °C for 30 min and centrifuged at 1400× g for 10 min. The amount of free hemoglobin in the supernatants was measured spectrophotometrically at 405 nm. Negative and positive controls were performed by incubating RBCs with sterile PBS and 0.1% Triton-X, respectively. Each experiment was run in triplicate.

in vitro = in vitro ADME; details: PAMPA, pH 7.4
Protocol: BBB permeability of 2, 7, 8, and 10 was investigated using a parallel artificial membrane permeability assay (PAMPA) method. The PAMPA system, which consisted of a 96-well microfilter plate, was divided into the following two chambers: a donor at the bottom and an acceptor at the top, separated by a 120 µm thick microfilter disc coated with BBB lipid solution (Pion, Inc., Billerica, MA, USA). The solutions of 2, 7, 8, and 10 were prepared in dimethylsulfoxide (DMSO) at 4 mg/mL concentration, and then diluted with Prisma buffer (pH = 7.4) to obtain the donor drug solution with the final nominal concentration of 20 µg/mL. Then, 180 µL of the donor solution was added to the donor wells. Subsequently, each filter membrane of the top plate was coated with 5 µL of BBB-1 lipid solution (Pion Inc., Billerica, MA, USA) and the acceptor well was filled with 200 µL of brain sink buffer (BSB). The acceptor plate and the donor plate were sandwiched together and incubated at 37 °C for 180 min.
The permeability coefficient value (Pe) was calculated using the following equation: Pe=−ln (1−CA/Cequilibrium)/S×(1/VD+1/VA)×t where VD—donor volume, VA—acceptor volume, Cequilibrium—equilibrium concentration, Cequilibrium=CD×VD+CA×VA/VD+VA , CD—donor concentration, CA—acceptor concentration, S—membrane area and t—incubation time (in seconds).

[3] = concentration reducing Hs27 viability by 30%, MTT, 24 h

O=C1C(O)=C([C@H]2CC[C@H](c3ccc(Cl)cc3)CC2)C(=O)c2ccccc21 [ATO, atovaquone, reference compound]
SI (selectivity index, CC30/IC50Tg) [1]: 227.55
IC50 [1]: 0.24 µg/mL (≈ 0.654 µM)
CC30 in Hs27 Cells (Hs27 cells; [3]): 54.26 µg/mL (≈ 148 µM)

CCc1nc(N)nc(N)c1-c1ccc(Cl)cc1 [PYR, pyrimethamine, reference compound]
SI (selectivity index, CC30/IC50Tg) [1]: 17.38
IC50 [1]: 2.86 µg/mL (≈ 11.5 µM)
CC30 in Hs27 Cells (Hs27 cells; [3]): 49.62 µg/mL (≈ 200 µM)

Nc1ccc(S(=O)(=O)Nc2ncccn2)cc1 [SDZ, sulfadiazine, reference compound]
SI (selectivity index, CC30/IC50Tg) [1]: 1.78
IC50 [1]: 1250 µg/mL (≈ 5010 µM)
CC30 in Hs27 Cells (Hs27 cells; human): 2230.61 µg/mL (≈ 8910 µM)

COc1cc(Cc2cnc(N)nc2N)cc(OC)c1OC [TRI, trimethoprim, reference compound]
SI (selectivity index, CC30/IC50Tg) [1]: 5.53
IC50 [1]: 14.8 µg/mL (≈ 50.9 µM)
CC30 in Hs27 Cells (Hs27 cells; human): 81.82 µg/mL (≈ 282 µM)

Cn1nnc2c(C(N)=O)ncn2c1=O [Temozolomide, temozolomide, reference compound]
IC50 (T98G glioblastoma cells): > 100 µg/mL

O=C(/C=C1\SC(=O)NC1=O)Oc1cccc(/C=N/NC(=O)c2ccncc2)c1 [compound 1]
SI (selectivity index, CC30/IC50Tg) [1]: 9.92
IC50 [1]: 12.9 µg/mL (≈ 32.6 µM)
CC30 in Hs27 Cells (Hs27 cells; [3]): 128.27 µg/mL (≈ 324 µM)

O=C(CC1SC(=O)NC1=O)Oc1ccc(/C=N/NC(=O)c2ccncc2)cc1 (centres unmarked) [compound 2]
SI (selectivity index, CC30/IC50Tg) [1]: >118.93
IC50 [1]: 8.37 µg/mL (≈ 21 µM)
Toxicity to zebrafish embryos and larvae [2]: not toxic
Mortality and deformity [2]: 100%
Hemolytic activity (in words) (human red blood cells): no specific hemolytic activity
Papp at 180 min, 20 µg/mL (in vitro): 12.4 ± 1.02 ×10⁻⁶ cm/s
IC50 (T98G glioblastoma cells): 19.4 ± 1.13 µg/mL (≈ 48.6 µM)
CC30 in Hs27 Cells (Hs27 cells; [3]): >995.98 µg/mL

COc1cc(/C=N/NC(=O)c2ccncc2)ccc1OC(=O)CC1SC(=O)NC1=O (centres unmarked) [compound 3]
SI (selectivity index, CC30/IC50Tg) [1]: >48.35
IC50 [1]: 22.1 µg/mL (≈ 51.7 µM)
CC30 in Hs27 Cells (Hs27 cells; [3]): >1071.05 µg/mL

CCOc1cc(/C=N/NC(=O)c2ccncc2)ccc1OC(=O)CC1SC(=O)NC1=O (centres unmarked) [compound 4]
SI (selectivity index, CC30/IC50Tg) [1]: 16.77
IC50 [1]: 39 µg/mL (≈ 88.2 µM)
CC30 in Hs27 Cells (Hs27 cells; [3]): 654.42 µg/mL (≈ 1480 µM)

O=C(CC1SC(=O)NC1=O)Oc1ccc(/C=N/NC(=O)c2ccncc2)cc1Cl (centres unmarked) [compound 5]
SI (selectivity index, CC30/IC50Tg) [1]: >44.48
IC50 [1]: 24.3 µg/mL (≈ 56.2 µM)
CC30 in Hs27 Cells (Hs27 cells; [3]): >1082.10 µg/mL

O=C(CC1SC(=O)NC1=O)Oc1ccc(/C=N/NC(=O)c2ccncc2)cc1Br (centres unmarked) [compound 6]
SI (selectivity index, CC30/IC50Tg) [1]: >43.81
IC50 [1]: 27.2 µg/mL (≈ 57.1 µM)
CC30 in Hs27 Cells (Hs27 cells; [3]): >1193.22 µg/mL

NC(=S)N/N=C/c1ccc(OC(=O)CC2SC(=O)NC2=O)cc1 (centres unmarked) [compound 7]
SI (selectivity index, CC30/IC50Tg) [1]: >148.28
IC50 [1]: 5.94 µg/mL (≈ 16.9 µM)
Toxicity to zebrafish embryos and larvae [2]: not toxic
Concentration at which the impact on occurrence of deformations was noticeable [2]: 25000 ng/mL
Mortality and deformity [2]: 100%
Hemolytic activity (in words) (human red blood cells): no specific hemolytic activity
Papp at 180 min, 20 µg/mL (in vitro): 23.1 ± 0.71 ×10⁻⁶ cm/s
IC50 (T98G glioblastoma cells): > 100 µg/mL
CC30 in Hs27 Cells (Hs27 cells; [3]): >880.97 µg/mL

NC(=S)N/N=C/c1ccc(OC(=O)CC2SC(=O)NC2=O)c(Cl)c1 (centres unmarked) [compound 8]
SI (selectivity index, CC30/IC50Tg) [1]: >110.67
IC50 [1]: 8.74 µg/mL (≈ 22.6 µM)
Toxicity to zebrafish embryos and larvae [2]: not toxic
Concentration at which the impact on occurrence of deformations was noticeable [2]: 25000 ng/mL
Mortality and deformity [2]: 100%
Hemolytic activity (in words) (human red blood cells): no specific hemolytic activity
Papp at 180 min, 20 µg/mL (in vitro): 26.1 ± 1.3 ×10⁻⁶ cm/s
IC50 (T98G glioblastoma cells): > 100 µg/mL
CC30 in Hs27 Cells (Hs27 cells; [3]): >967.09 µg/mL

NC(=S)N/N=C/c1ccc(OC(=O)CC2SC(=O)NC2=O)c(Br)c1 (centres unmarked) [compound 9]
SI (selectivity index, CC30/IC50Tg) [1]: >87.75
IC50 [1]: 12.3 µg/mL (≈ 28.5 µM)
CC30 in Hs27 Cells (Hs27 cells; [3]): >1078.21 µg/mL

NC(=S)N/N=C/c1ccc(OC(=O)/C=C2\SC(=O)NC2=O)cc1 [compound 10]
SI (selectivity index, CC30/IC50Tg) [1]: 58.71
IC50 [1]: 5.32 µg/mL (≈ 15.2 µM)
Toxicity to zebrafish embryos and larvae [2]: not toxic
Mortality and deformity [2]: 100%
Hemolytic activity (in words) (human red blood cells): no specific hemolytic activity
Papp at 180 min, 20 µg/mL (in vitro): 24.4 ± 0.93 ×10⁻⁶ cm/s
IC50 (T98G glioblastoma cells): 94.6 ± 6.16 µg/mL (≈ 270 µM)
CC30 in Hs27 Cells (Hs27 cells; [3]): 312.27 µg/mL (≈ 891 µM)

COc1cc(/C=N/NC(N)=S)ccc1OC(=O)/C=C1\SC(=O)NC1=O [compound 11]
SI (selectivity index, CC30/IC50Tg) [1]: >78.81
IC50 [1]: 12.1 µg/mL (≈ 31.7 µM)
CC30 in Hs27 Cells (Hs27 cells; [3]): >951.00 µg/mL

NC(=S)N/N=C/c1ccc(OC(=O)/C=C2\SC(=O)NC2=O)c(Cl)c1 [compound 12]
SI (selectivity index, CC30/IC50Tg) [1]: >94.59
IC50 [1]: 10.2 µg/mL (≈ 26.4 µM)
CC30 in Hs27 Cells (Hs27 cells; [3]): >962.05 µg/mL
